Entries after “also recorded” stand apart in the source; their conditions may differ.
Experiments:
Format in all cases: in vivo, mouse
[1] = system: total ASYN; assay: Immunohistochemical evaluation of total ASYN in brain sections, 3-month study; settings: for change in total ASYN immunolabeling vs vehicle-treated Line 61 transgenic mice: hippocampus and striatum (P < 0.0001); for total ASYN immunolabeling, mean: Line 61 tg, 3 months
Source text: (§1) A transgenic mouse model of Parkinson’s disease overexpressing human wild-type ASYN under the murine Thy-1 promoter on a mixed C57Bl/6 background was used in the present studies (commonly referred to Line 61)[49]. The Line 61 transgenic mouse model of Parkinson’s disease develops extensive accumulation of ASYN in areas relevant to Parkinson’s disease[49]–[51], neurodegeneration (as evidenced by loss of tyrosine hydroxylase[52],[53] and dopamine transporter immunoreactivity[18] in the striatum), inflammation, and both motor and non-motor functional deficits. Multiple cohorts of mice were transferred from the University of California, San Diego to a Neuropore-funded AAALAC-accredited vivarium facility per a laboratory service agreement between Neuropore Therapies, Inc. and the laboratory of Dr. Eliezer Masliah under institutional animal care and use committee (IACUC) Protocol S02221. All in vivo testing was conducted by Neuropore personnel under Explora Biosciences animal care and use protocol (ACUP) number E15-016-2. Three-month-old male transgenic and age-matched non-transgenic littermate control mice were used and housed up to 5 per cage. Animals received free access to food and water prior to the experiment. The vivarium ambient room temperature was monitored daily and kept within a range of 68–72 degrees Fahrenheit. Animals were kept on a 12:12 diurnal light cycle, with lights on at 0600.
(§2) Minzasolmin was dissolved in a vehicle solution consisting of 40% Captisol (CyDex Pharmaceuticals, Inc.; Kansas, USA) in sterile water and administered at a volume of 0.1 ml/20 g of body weight. Animals received a Monday–Friday daily intraperitoneal injection of vehicle, or 1 or 5 mg/kg minzasolmin for approximately 90 days. Animals received treatment up to and including a final injection 1 h prior to euthanasia. All study solutions were blind coded and experimenters were blinded to genotype and treatment group assignments for the duration of the study, ex vivo evaluations (i.e., neuropathology sample processing and imaging, videotape scoring) and through penultimate data analyses (i.e., data quality control with documented exclusions prior to unblinding; unblinding required for a priori pairwise comparisons).
(§3) All subjects were euthanized within 1 h of the last treatment and brain and blood were collected. Tissue processing and imaging methods were conducted as described previously[17],[18],[52] and performed under a lab service agreement between UCSD and Neuropore Therapies. All samples were blind coded to genotype and treatment group throughout immune-histological processing and imaging. The right hemibrain was post-fixed in phosphate-buffered 4% paraformaldehyde (pH 7.4) at 4 °C for 48 and then serially sectioned into […] thick […] sections using a vibratome. Sections were free-floated and incubated overnight at 4 °C with primary antibodies. To confirm the specificity of primary antibodies, control experiments were performed in which sections were incubated overnight in the absence of primary antibody, pre-immune serum, or primary antibody pre-adsorbed for 48 h with 20-fold excess of the corresponding peptide. Tissue collection, processing, and imaging methods were conducted as described previously. Briefly, the right hemibrain was post-fixed in phosphate-buffered 4% paraformaldehyde (pH 7.4) at 4 °C for 48 h, and then serially sectioned into 40 µm thick coronal sections using a vibratome. Sections were free-floated and incubated overnight at 4 °C with primary antibodies. To confirm the specificity of primary antibodies, control experiments were performed in which sections were incubated overnight in the absence of primary antibody (data not shown). Immunolabeled sections were imaged with a Zeiss 63× (N.A. 1.4) objective on an Axiovert 35 microscope (Zeiss, Germany). Immunolabeling was evaluated as a corrected optical density across a field of view. […]

[2] = system: proteinase K-resistant ASYN; assay: Immunohistochemical evaluation of proteinase K-resistant ASYN in brain sections, 3-month study; settings: for change in proteinase K-resistant ASYN immunolabeling vs vehicle-treated transgenic mice: striatum (P < 0.0001); for proteinase K-resistant ASYN immunolabeling, mean: Line 61 tg, 3 months, adjusted P <0.0001
Source text: as §1, §2, §3

[3] = system: dopamine transporter (DAT); assay: Immunolabeling of striatal dopamine transporter (DAT), 3-month study; settings: for DAT immunolabeling in dorsal striatum, mean: 3 months
Source text: as §1, §2
as §3, with “Briefly, the right hemibrain was post-fixed in phosphate-buffered 4% paraformaldehyde (pH 7.4) at 4 °C for 48 h, and then serially sectioned into 40 µm thick coronal sections using a vibratome. Sections were free-floated and incubated overnight at 4 °C with primary antibodies. To confirm the specificity of primary antibodies, control experiments were performed in which sections were incubated overnight in the absence of primary antibody (data not shown). Immunolabeled sections were imaged with a Zeiss 63× (N.A. 1.4) objective on an Axiovert 35 microscope (Zeiss, Germany).” left out

[4] = system: GFAP; assay: Immunolabeling of glial fibrillary acidic protein (GFAP), 3-month study; settings: for change in GFAP immunolabeling vs vehicle-treated Line 61 transgenic mice: cortex and hippocampus (P < 0.0001); for GFAP immunolabeling, mean: 3 months, adjusted P <0.0001
Source text: as §1, §2, §3

[5] = system: Line 61 transgenic mice; assay: Grip strength, Line 61 transgenic mice; settings: 1 and 5 mg/kg, re-test after treatment, two-way ANOVA with repeated measures
Source text: A transgenic mouse model of Parkinson’s disease overexpressing human wild-type ASYN under the murine Thy-1 promoter on a mixed C57Bl/6 background was used in the present studies (commonly referred to Line 61)[49]. The Line 61 transgenic mouse model of Parkinson’s disease develops extensive accumulation of ASYN in areas relevant to Parkinson’s disease[49]–[51], neurodegeneration (as evidenced by loss of tyrosine hydroxylase[52],[53] and dopamine transporter immunoreactivity[18] in the striatum), inflammation, and both motor and non-motor functional deficits. […] The vivarium ambient room temperature was monitored daily and kept within a range of 68–72 degrees Fahrenheit. […]
Nonetheless, a baseline measurement of grip strength is always included to confirm existing deficits in Line 61 transgenic mice and to inform pseudorandomized treatment group assignment (i.e., ensuring that each treatment group started with a similar distribution of grip strength performances). […] The dependent measure, peak strength (in grams of force), was determined per trial and as an average for each animal across trials. […]

SMILES: CCCC[C@H](Cc1c[nH]c2ccccc12)NC(=O)c1cnc(N2CCN(C)CC2)s1 [minzasolmin]
- change in total ASYN immunolabeling vs vehicle-treated Line 61 transgenic mice ([1]; 1 mg/kg, cortex (P < 0.05)): statistically significant decreases; also recorded: statistically significant reductions
- change in total ASYN immunolabeling vs vehicle-treated Line 61 transgenic mice ([1]; 5 mg/kg, cortex): statistically significant decreases; also recorded: statistically significant reductions
- effect of dose on total ASYN, 5 mg/kg compared to 1 mg/kg ([1]; cortex (P < 0.05) and hippocampus (P < 0.01), unpaired two tailed t tests): greater reductions
- total ASYN immunolabeling, mean ([1]; cortex, 1 mg/kg, corrected optical density, Line 61 tg/Vehicle 352.8, adjusted P 0.0148): 282.1
- total ASYN immunolabeling, mean ([1]; cortex, 5 mg/kg, Line 61 tg/Vehicle 352.8, adjusted P <0.0001): 232.8
- total ASYN immunolabeling, mean ([1]; hippocampus, 1 mg/kg, Line 61 tg/Vehicle 392.9, adjusted P <0.0001): 286.7
- total ASYN immunolabeling, mean ([1]; hippocampus, 5 mg/kg, Line 61 tg/Vehicle 392.9, adjusted P <0.0001): 229.7
- effect of dose on total ASYN, 1 vs. 5 mg/kg ([1]; striatum): no statistically significant effect
- total ASYN immunolabeling, mean ([1]; striatum, 1 mg/kg, Line 61 tg/Vehicle 365.3, adjusted P <0.0001): 265.4
- total ASYN immunolabeling, mean ([1]; striatum, 5 mg/kg, Line 61 tg/Vehicle 365.3, adjusted P <0.0001): 245.5
- change in proteinase K-resistant ASYN immunolabeling vs vehicle-treated transgenic mice ([2]; 1 mg/kg, cortex, hippocampus): statistically significant reductions; also recorded: statistically significant decreases
- change in proteinase K-resistant ASYN immunolabeling vs vehicle-treated transgenic mice ([2]; 5 mg/kg, cortex, hippocampus): statistically significant reductions; also recorded: statistically significant decreases
- effect of dose on proteinase K-resistant ASYN, 1 vs. 5 mg/kg ([2]; any examined region): no statistically significant effects
- proteinase K-resistant ASYN immunolabeling, mean ([2]; cortex, 1 mg/kg, Line 61 tg/Vehicle 242.5): 180.6
- proteinase K-resistant ASYN immunolabeling, mean ([2]; cortex, 5 mg/kg, Line 61 tg/Vehicle 242.5): 187.3
- proteinase K-resistant ASYN immunolabeling, mean ([2]; hippocampus, 1 mg/kg, Line 61 tg/Vehicle 270.1): 176.6
- proteinase K-resistant ASYN immunolabeling, mean ([2]; hippocampus, 5 mg/kg, Line 61 tg/Vehicle 270.1): 178.3
- proteinase K-resistant ASYN immunolabeling, mean ([2]; striatum, 1 mg/kg, Line 61 tg/Vehicle 266.7): 176.1
- proteinase K-resistant ASYN immunolabeling, mean ([2]; striatum, 5 mg/kg, Line 61 tg/Vehicle 266.7): 182.2
- change in striatal DAT immunolabeling vs vehicle-treated ASYN transgenic controls ([3]; 1 mg/kg, P < 0.05): statistically significant increases; also recorded: statistically significant normalizations
- change in striatal DAT immunolabeling vs vehicle-treated ASYN transgenic controls ([3]; 5 mg/kg, P < 0.0001): statistically significant increases; also recorded: statistically significant normalizations
- DAT immunolabeling in dorsal striatum, mean ([3]; Line 61 tg/1 mg/kg (first group of that name), Line 61 tg/Vehicle 211.2, Non-tg/Vehicle 292.1, adjusted P 0.0117): 255.3
- DAT immunolabeling in dorsal striatum, mean ([3]; Line 61 tg/1 mg/kg as printed (second group of that name), Line 61 tg/Vehicle 211.2, adjusted P <0.0001): 280.1
- dose effect on striatal DAT levels, 5 mg/kg compared to 1 mg/kg (towards a greater increase) ([3]; P = 0.0754, unpaired two tailed t test): statistical trend
- change in GFAP immunolabeling vs vehicle-treated Line 61 transgenic mice ([4]; 1 mg/kg): decreased
- change in GFAP immunolabeling vs vehicle-treated Line 61 transgenic mice ([4]; 5 mg/kg): decreased
- effect of dose on GFAP levels, 1 vs. 5 mg/kg ([4]; cortex and hippocampus): no statistically significant effect
- GFAP immunolabeling, mean ([4]; cortex, Line 61 tg/1 mg/kg (first group of that name), Line 61 tg/Vehicle 223.1): 155.9
- GFAP immunolabeling, mean ([4]; cortex, Line 61 tg/1 mg/kg as printed (second group of that name), Line 61 tg/Vehicle 223.1): 169.3
- GFAP immunolabeling, mean ([4]; hippocampus, Line 61 tg/1 mg/kg (first group of that name), Line 61 tg/Vehicle 350.8): 271.6
- GFAP immunolabeling, mean ([4]; hippocampus, Line 61 tg/1 mg/kg as printed (second group of that name), Line 61 tg/Vehicle 350.8): 289.7
- effect of chronic treatment on grip strength of Line 61 transgenic mice [5]: no statistically significant benefits
